Experimental data: US20120172392A1, “AMINE-BASED AND AMIDE-BASED INHIBITORS OF SEMICARBAZIDE-SENSITIVE AMINE OXIDASE (SSAO) ENZYME ACTIVITY AND VAP-1 MEDIATED ADHESION USEFUL FOR TREATMENT OF DISEASES” (priority 2004, published 2012)
Structures can show the parent of a compound that is named as a salt.

Experiments:
Sprague Dawley rats = assay: Carrageenan-induced rat paw edema; type: in vivo; settings: 30 mg/kg p.o. one hour before carrageenan; 1-6 h
Method: Female Sprague Dawley rats were used and compounds of the invention were injected i.p. or dosed orally prior to carrageenan exposure. An equal volume of vehicle (PBS) was administered to the control group. Edema in the paws was induced as previously described by injecting 50 μl of a 0.5% solution of carrageenan (Type TV Lambda, Sigma) in saline with a 27-G needle s.c. in the right foot pat. (See Whiteley P. E. and Dalrymple S. A. (1998), Models of inflammation: carrageenan-induced paw edema in the rat, in Current Protocols in Pharmacology. Enna Si, Williams M, Ferkany J W, Kenaki T, Porsolt R E and Sullivan J P, eds., pp 5.4.1-5.4.3, John Wiley & Sons, New York) The size of the tested foot of each animal was measured volumetrically, before induction of edema, and at 1, 2, 3, 4, and 6 hours after carrageenan induction, to screen for compounds which inhibit the development of edema as compared to control animals.
The results of an experiment where three compounds of Example 21, Table I (LJP 1379, LJP 1383, LJP 1406) were used are shown in FIG. 2A, FIG. 2B, and FIG. 2C. […] Paw volumes were recorded at the indicated times and expressed as percent of the volume before injection (100%). […] Paw volumes were recorded at the indicated times and expressed as percent of the volume before injection (100%). […]

SSAO = target: T1, SSAO (Rattus norvegicus, UniProt O08590); assay: In vitro inhibition of SSAO activity, radiolabeled benzylamine procedure (rat lung homogenate); type: biochemical
T1 construct: SSAO activity in 100 ul of lung homogenate was determined radiochemically; from tissue; host or cells: rat lung homogenate (1000 g supernatant)
T1 sequence (O08590 1-763): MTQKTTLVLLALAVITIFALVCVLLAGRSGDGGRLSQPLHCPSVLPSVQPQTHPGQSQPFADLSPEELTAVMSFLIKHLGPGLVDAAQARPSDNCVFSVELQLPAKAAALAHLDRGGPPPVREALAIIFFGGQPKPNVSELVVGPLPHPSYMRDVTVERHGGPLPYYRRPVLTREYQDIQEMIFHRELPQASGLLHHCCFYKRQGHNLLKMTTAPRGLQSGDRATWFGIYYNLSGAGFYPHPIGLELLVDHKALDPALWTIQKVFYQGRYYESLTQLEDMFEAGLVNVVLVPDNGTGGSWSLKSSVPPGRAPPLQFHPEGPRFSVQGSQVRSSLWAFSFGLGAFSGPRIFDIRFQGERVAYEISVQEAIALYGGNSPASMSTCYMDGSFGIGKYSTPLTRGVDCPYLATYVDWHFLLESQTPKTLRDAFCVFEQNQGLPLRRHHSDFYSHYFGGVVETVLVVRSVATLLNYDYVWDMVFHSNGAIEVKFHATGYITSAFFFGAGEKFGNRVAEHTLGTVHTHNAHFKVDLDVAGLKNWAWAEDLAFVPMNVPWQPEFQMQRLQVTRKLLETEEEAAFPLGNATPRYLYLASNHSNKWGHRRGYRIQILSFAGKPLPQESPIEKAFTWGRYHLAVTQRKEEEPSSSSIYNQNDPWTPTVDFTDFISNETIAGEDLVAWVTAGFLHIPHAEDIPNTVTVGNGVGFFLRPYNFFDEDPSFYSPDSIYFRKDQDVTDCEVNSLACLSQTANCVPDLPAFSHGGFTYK

- reversibility of inhibition of SSAO enzyme activity (SSAO): irreversible
Compound: NCC(=O)NCc1cc(F)cc(C(F)(F)F)c1 [LJP 1383, 2-amino-N-(3-fluoro-5-trifluoromethylbenzyl)acetamide trifluoroacetate]
- paw swelling (paw volume) (Sprague Dawley rats): significantly reduced the paw swelling at all time points tested
